Assays:
Assay type in all cases: in vivo
[1] = test system: morning glory (Ipomoea spp.); experiment: Test A preemergence, soil drench; details: Morningglory, approx. eleven days
Procedure: (§1) Seeds of barnyardgrass (Echinochloa crus-galli), crabgrass (Digitaria spp.), giant foxtail (Setaria viridis), morning glory (Ipomoea spp.), redroot pigweed (Amaranthus retroflexus) and velvetleaf (Abutilon theophrasti) were planted into a sandy loam soil and treated preemergence by soil drench with test chemicals formulated in a non-phytotoxic solvent mixture which included a surfactant. At the same time, these crop and weed species were also treated postemergence sprayed to runoff with test chemicals formulated in the same manner. Plants ranged in height from two to eighteen cm and were in the one- to two-leaf stage for the postemergence treatment. Treated plants and untreated controls were maintained in a greenhouse for approximately eleven days, after which time all treated plants were compared to untreated controls and visually evaluated for injury. Plant response ratings, summarized in Table A, are based on a 0 to 10 scale where 0 is no effect and 10 is complete control. A dash (-) response means no test results.

[2] = test system: barnyardgrass (Echinochloa crus-galli); experiment: Test A preemergence, soil drench; details: approx. eleven days
Procedure: as §1

[3] = test system: giant foxtail (Setaria viridis); experiment: Test A preemergence, soil drench; details: approx. eleven days
Procedure: as §1

[4] = test system: velvetleaf (Abutilon theophrasti); experiment: Test A preemergence, soil drench; details: approx. eleven days
Procedure: as §1

[5] = test system: redroot pigweed (Amaranthus retroflexus); experiment: Test A preemergence, soil drench; details: approx. eleven days
Procedure: as §1

[6] = test system: crabgrass (Digitaria spp.); experiment: Test A preemergence, soil drench; details: approx. eleven days
Procedure: as §1

[7] = test system: morning glory (Ipomoea spp.); experiment: Test A postemergence, sprayed to runoff; parameters: scale not given here; details: Morningglory, approx. eleven days
Procedure: as §1

[8] = test system: velvetleaf (Abutilon theophrasti); experiment: Test A postemergence, sprayed to runoff; parameters: scale not given here; details: approx. eleven days
Procedure: as §1

| SMILES | Plant response rating (visual injury vs untreated controls) ([1]; Rate 500 g/ha) | Plant response rating (visual injury vs untreated controls) ([1]; Rate 2000 g/ha) | Plant response rating (visual injury vs untreated controls) ([2]; Rate 500 g/ha) | Plant response rating (visual injury vs untreated controls) ([2]; Rate 2000 g/ha) | Plant response rating (visual injury vs untreated controls) ([3]; Rate 500 g/ha) | Plant response rating (visual injury vs untreated controls) ([3]; Rate 2000 g/ha) | Plant response rating (visual injury vs untreated controls) ([4]; Rate 500 g/ha) | Plant response rating (visual injury vs untreated controls) ([4]; Rate 2000 g/ha) | Plant response rating (visual injury vs untreated controls) ([5]; Rate 500 g/ha) | Plant response rating (visual injury vs untreated controls) ([5]; Rate 2000 g/ha) | Plant response rating (visual injury vs untreated controls) ([6]; Rate 500 g/ha) | Plant response rating (visual injury vs untreated controls) ([6]; Rate 2000 g/ha) | Plant response rating (visual injury vs untreated controls) ([7]; Rate 500 g/ha) | Plant response rating (visual injury vs untreated controls) ([7]; Rate 2000 g/ha) | Plant response rating (visual injury vs untreated controls) ([8]; Rate 500 g/ha) | Plant response rating (visual injury vs untreated controls) ([8]; Rate 2000 g/ha) |
| --- | --- | --- | --- | --- | --- | --- | --- | --- | --- | --- | --- | --- | --- | --- | --- | --- |
| O=C1C(n2ccc(C3CC3)n2)SCN1c1cccc(C(F)(F)F)c1 (stereo not shown) [Compound 26] | 0 | 30 | 100 | 100 | 100 | 100 | 50 | 40 | 100 | 100 | 100 | 100 | 20 | 50 | 10 | 10 |
| CC(C)(C)c1ccn(C2CCN(c3cccc(I)c3)C2=O)n1 (stereo not shown) [Compound 88] | 0 | 30 | 40 | 100 | 70 | 100 | 0 | 30 | 100 | 100 | 80 | 100 | 10 | 30 | 0 | 0 |
| CC(C)c1ccn(C2OCN(c3cccc(C(F)(F)F)c3)C2=O)n1 (stereo not shown) [Compound 27] | 0 | 20 | 100 | 100 | 100 | 100 | 20 | 10 | 100 | 100 | 100 | 90 | 0 | 20 | 0 | 20 |
| CC(C)(C)c1nn(C2CCN(c3cccc(C(F)(F)F)c3)C2=O)cc1Cl (stereo not shown) [Compound 14] | 0 | 0 | 0 | 0 | 0 | 0 | 0 | 0 | 40 | 70 | 0 | 0 | 0 | 0 | 0 | 0 |

Source: patent US7138361B2, “Herbicidal heterocycles” (E. I. du Pont de Nemours and Company, priority 2000, dated 2006)
